The target in data set [1] is T1, human GPR10 (Homo sapiens (Human), UniProt P49683). Kind of data set: Inhibitory activity on binding of [3H]-PrRP to GPR10 (HEK 293 cell membrane fraction). The method, boiled down:
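Competition with [3H]-PrRP (1 nM final) for membranes from human GPR10-expressing HEK293 cells, 90 min at room temperature in HEPES/EDTA buffer pH 7.4; filtration and scintillation counting.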

Data set [2] concerns the target T1, human GPR10. Kind of data set: Antagonistic activity on PrRP-induced intracellular calcium mobilization in human GPR10-expressing HEK293 cells. The data set is classed as cell-based. The following applies: PrRP 1 nM-induced intracellular calcium mobilization, Fluo-8. How it is done: Pharmacological Test 2 Antagonistic Activity on GPR10 Using Human GPR10-Expressing HEK293 Cells.
Antagonistic activity of test compounds on PrRP-induced intracellular calcium mobilization was evaluated using GPR10-expressing HEK293 cells.
HEK293 cells expressing human GPR10 were maintained in Dulbecco's Modified Eagles' medium supplemented with 10% fetal bovine serum, 1% penicillin-streptomycin and 20 mM HEPES at 37° C. in a 5% CO2 incubator. GPR10-expressing HEK293 cells were placed in poly-D-lysine coated 96-well culture plates and cultured for 18-24 hr before the test at a density of 3×10^4 cells/well. […] The cells were incubated with test compounds for 15 min at room temperature, and then PrRP (the final concentration, 1 nM) was added into the medium. The changes in intracellular calcium-dependent fluorescence were monitored using a fluorescence imaging plate reader (FDSS3000, Hamamatsu Photonics K.K.). Fluo-8 fluorescence was measured with excitation at 490 nm and emission at 520 nm. The calcium-dependent fluorescence intensity was calculated by subtracting basal intensity (average intensity for 30 sec before agonist stimulation) from peak intensity for 60 sec after PrRP-stimulation, and then IC50 values were determined by nonlinear curve-fitting program, GraphPad Prism 5.
In general terms: Calcium flux is commonly read through the fluorescence of an indicator in the cells.

The mark [3] stands for this setting: [3H]-PrRP 1 nM, human GPR10-expressing HEK 293 cell membrane fraction, Ki from IC50 by Cheng-Prussoff formula.

Structures can show the parent of a compound that is named as a salt. Where two headings read alike, the source gives them in different places.

T1 sequence (P49683 whole entry): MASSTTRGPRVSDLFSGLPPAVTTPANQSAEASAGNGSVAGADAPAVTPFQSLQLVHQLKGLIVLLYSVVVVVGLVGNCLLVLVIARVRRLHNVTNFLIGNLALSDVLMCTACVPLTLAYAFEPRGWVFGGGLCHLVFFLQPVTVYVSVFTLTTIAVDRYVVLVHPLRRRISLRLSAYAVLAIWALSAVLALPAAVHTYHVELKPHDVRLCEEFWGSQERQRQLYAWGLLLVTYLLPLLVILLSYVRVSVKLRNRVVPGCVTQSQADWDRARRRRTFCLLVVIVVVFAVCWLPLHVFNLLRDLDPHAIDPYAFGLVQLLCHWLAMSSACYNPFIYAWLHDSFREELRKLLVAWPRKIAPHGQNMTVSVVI

The term melting point denotes the temperature of the solid-liquid transition. The compound `CN(C)n1c(NCc2ccc(C(F)(F)F)c(F)c2)nc2c(c1=O)CN(C(=O)c1ccc(Cl)cc1)CC2.Cl` displayed a melting point of 122 to 124 °C.
Regarding `CC[C@@H](Nc1nc2c(c(=O)n1OC)CN(C(=O)c1ccc(Cl)cc1)CC2)c1ccc(Cl)cc1.Cl`, the melting point was 127 to 129.5 °C.
Broadly, the Ki is a measure of affinity in units of concentration, obtained from inhibition or displacement. High values mean a looser hold on the target, low ones a stronger hold on the target. Broadly, the IC50 is the concentration that inhibits the measured activity by half. `C[C@H](Nc1nc2c(c(=O)n1N(C)C)CN(C(=O)c1ccc(Cl)cc1)CC2)c1ccc(Cl)cc1.Cl` [Example 8, 6-(4-chlorobenzoyl)-2-(S)-[1-(4-chlorophenyl)ethylamino]-3-dimethylamino-5,6,7,8-tetrahydropyrido[4,3-d]pyrimidin-4-(3H)-one hydrochloride] returned a melting point of 121 to 123 °C. The compound further returned a Ki on human GPR10 [1] (setting [3]) of 0.025 µM. The concentration for half-maximal inhibition (IC50) at human GPR10 [2] is 0.253 µM.
On the same counts, the results for `CCC(Nc1nc2c(c(=O)n1OC)CN(C(=O)c1ccc(Cl)cc1)CC2)c1ccc(Cl)cc1.Cl` (centres unmarked) [Example 2421, 6-(4-chlorobenzoyl)-2-[1-(4-chlorophenyl)propylamino]-3-methoxy-5,6,7,8-tetrahydro-3H-pyrido[4,3-d]pyrimidin-4-one hydrochloride] are 118.1 to 123.7 °C, 0.044 µM and 1.57 µM.
For the compound `COn1c(N[C@@H](C)c2ccc(C(F)(F)F)cc2)nc2c(c1=O)CN(C(=O)COc1ccc(Cl)cc1)CC2` [Example 2389, 6-[2-(4-chlorophenoxy)acetyl]-3-methoxy-2-[(S)-1-(4-trifluoromethylphenyl)ethylamino]-5,6,7,8-tetrahydro-3H-pyrido[4,3-d]pyrimidin-4-one], the Ki on human GPR10 [1] (setting [3]) turned out to be 0.008 µM. Moreover, on human GPR10 [2], the IC50 is 0.678 µM.
The compound `COn1c(N[C@@H](C)c2ccc(C(F)(F)F)cc2)nc2c(c1=O)CN(C(=O)c1ccc(C#N)cc1F)CC2` [Example 11, 6-(4-cyano-2-fluorobenzoyl)-3-methoxy-2-(S)-{1-[4-(trifluoromethyl)phenyl]ethylamino}-5,6,7,8-tetrahydropyrido[4,3-d]pyrimidin-4-(3H)-one hydrochloride] returned an inhibition constant Ki at human GPR10 [1] (setting [3]) of 0.015 µM. Further, the IC50 at human GPR10 [2] worked out at 0.034 µM.
At human GPR10 [1], `COn1c(N[C@@H](C)c2ccc(C(F)(F)F)cc2)nc2c(c1=O)CN(C(=O)/C=C/c1ccc(Cl)cc1)CC2` [Example 2392, 6-[(E)-3-(4-chlorophenyl)acryloyl]-3-methoxy-2-[(S)-1-(4-trifluoromethylphenyl)ethylamino]-5,6,7,8-tetrahydro-3H-pyrido[4,3-d]pyrimidin-4-one] yielded a Ki of 0.012 µM. For the same compound, the IC50 at human GPR10 [2] was found to be 5.79 µM.
At human GPR10 [1] (setting [3]), `CCOn1c(N[C@H](C)c2ccc(C(F)(F)F)cc2)nc2c(c1=O)CN(C(=O)c1ccc(C#N)cc1)CC2` [Example 92] showed a Ki of 0.011 µM. Besides, the IC50 on human GPR10 [2] stood at 0.156 µM.
In the case of `CC#CCn1c(N[C@@H](C)c2ccc(C(F)(F)F)cc2)nc2c(c1=O)CN(C(=O)c1ccc(Cl)cc1)CC2` [Example 2409, 3-(2-butynyl)-6-(4-chlorobenzoyl)-2-[(S)-1-(4-trifluoromethylphenyl)ethylamino]-5,6,7,8-tetrahydro-3H-pyrido[4,3-d]pyrimidin-4-one hydrochloride], at human GPR10 [1] (setting [3]), the inhibition constant Ki came out at 0.016 µM. Besides, at human GPR10 [2], the half-inhibitory concentration (IC50) was determined as 2.44 µM.
`C#CCCn1c(N[C@@H](C)c2ccc(C(F)(F)F)cc2)nc2c(c1=O)CN(C(=O)c1ccc(C#N)cc1F)CC2` [Example 2435, 4-{3-(3-butynyl)-4-oxo-2-[(S)-1-(4-trifluoromethylphenyl)ethylamino]-3,5,7,8-tetrahydro-4H-pyrido[4,3-d]pyrimidine-6-carbonyl}-3-fluorobenzonitrile] displayed a Ki on human GPR10 [1] (setting [3]) of 0.002 µM. Further, on human GPR10 [2], the IC50 amounted to 0.068 µM.
The matching figures for `CCOn1c(N[C@H](C)c2ccc(C(F)(F)F)cc2)nc2c(c1=O)CN(C(=O)c1ccc(Cl)cc1)CC2` [Example 86]: 0.025 µM and 3.71 µM.
At human GPR10 [1] (setting [3]), `COc1ccc(C(=O)N2CCc3nc(N[C@@H](C)c4ccc(C(F)(F)F)cc4)n(OC)c(=O)c3C2)c(OC)n1` [Example 2419, 6-(2,6-dimethoxypyridine-3-carbonyl)-3-methoxy-2-[(S)-1-(4-trifluoromethylphenyl)ethylamino]-5,6,7,8-tetrahydro-3H-pyrido[4,3-d]pyrimidin-4-one] yielded a Ki of 0.007 µM. In addition, the 50% inhibitory concentration (IC50) at human GPR10 [2] is 0.228 µM.
As to `C[C@@H](Nc1nc2c(c(=O)n1N1CCCC1)CN(C(=O)c1ccc(C#N)cc1)CC2)c1ccc(C(F)(F)F)cc1` [Example 163], the inhibitory constant (Ki) at human GPR10 [1] (setting [3]) was found to be 0.01 µM. For the same compound, the IC50 at human GPR10 [2] was found to be 0.648 µM.
On the same counts, the results for `COn1c(N[C@@H](C)c2ccc(C(F)(F)F)cc2)nc2c(c1=O)CN(C(=O)c1ccc(Cl)s1)CC2` [Example 2405, 6-(5-chlorothiophene-2-carbonyl)-3-methoxy-2-[(S)-1-(4-trifluoromethylphenyl)ethylamino]-5,6,7,8-tetrahydro-3H-pyrido[4,3-d]pyrimidin-4-one] are 0.015 µM and 8.79 µM.
`COn1c(N[C@@H](C)c2ccc(C(F)(F)F)cc2)nc2c(c1=O)CN(C(=O)c1ccc(C)c(C)c1)CC2` [Example 2452, 6-(3,4-dimethylbenzoyl)-3-methoxy-2-[(S)-1-(4-trifluoromethylphenyl)ethylamino]-5,6,7,8-tetrahydro-3H-pyrido[4,3-d]pyrimidin-4-one] showed an inhibition constant (Ki) at human GPR10 [1] (setting [3]) of 0.004 µM. Moreover, the half-inhibitory concentration (IC50) at human GPR10 [2] is 1.03 µM.
Regarding `C[C@H](Nc1nc2c(c(=O)n1N1CCOCC1)CN(C(=O)c1ccc(C#N)cc1)CC2)c1ccc(C(F)(F)F)cc1` [Example 2432, 4-{3-morpholin-4-yl-4-oxo-2-[(S)-1-(4-trifluoromethylphenyl)ethylamino]-3,5,7,8-tetrahydro-4H-pyrido[4,3-d]pyrimidine-6-carbonyl}benzonitrile hydrochloride], on human GPR10 [1] (setting [3]), the inhibition constant Ki was found to be 0.036 µM. In addition, the IC50 on human GPR10 [2] was found to be 0.238 µM.
With `CC#CCn1c(N[C@@H](C)c2ccc(C(F)(F)F)cc2)nc2c(c1=O)CN(C(=O)c1cc3ccccn3n1)CC2` [Example 2411, 3-(2-butynyl)-6-(pyrazolo[1,5-a]pyridine-2-carbonyl)-2-[(S)-1-(4-trifluoromethylphenyl)ethylamino]-5,6,7,8-tetrahydro-3H-pyrido[4,3-d]pyrimidin-4-one hydrochloride], the Ki at human GPR10 [1] (setting [3]) was determined as 0.02 µM. The half-maximal inhibitory concentration (IC50) on human GPR10 [2] stood at 0.776 µM.
In turn, `CC#CCn1c(N[C@@H](C)c2ccc(C(F)(F)F)cc2)nc2c(c1=O)CN(C(=O)c1ccc(-c3cnco3)cc1)CC2` [Example 2410, 3-(2-butynyl)-6-(4-oxazol-5-ylbenzoyl)-2-[(S)-1-(4-trifluoromethylphenyl)ethylamino]-5,6,7,8-tetrahydro-3H-pyrido[4,3-d]pyrimidin-4-one hydrochloride] returned a Ki at human GPR10 [1] (setting [3]) of 0.01 µM. At human GPR10 [2], the half-inhibitory concentration (IC50) was 0.665 µM.
On the same counts, the results for `C[C@H](Nc1nc2c(c(=O)n1N(C)C)CN(C(=O)COc1ccc(Cl)cc1)CC2)c1ccc(Cl)cc1` [Example 2431, 6-[2-(4-chlorophenoxy)acetyl]-2-[(S)-1-(4-chlorophenyl)ethylamino]-3-dimethylamino-5,6,7,8-tetrahydro-3H-pyrido[4,3-d]pyrimidin-4-one] are 0.207 µM and 3.6 µM.
With `C[C@H](Nc1nc2c(c(=O)n1N(C)C)CN(C(=O)c1ccc(Cl)cc1)CC2)c1ccc(C(F)(F)F)cc1.Cl` [Example 6, 6-(4-chlorobenzoyl)-3-dimethylamino-2-(S)-{1-[4-(trifluoromethyl)phenyl]ethylamino}-5,6,7,8-tetrahydropyrido[4,3-d]pyrimidin-4-(3H)-one hydrochloride], the melting point is 116 to 118 °C. This compound also came in with a Ki on human GPR10 [1] (setting [3]) of 0.017 µM. Also, the IC50 at human GPR10 [2] came out at 0.187 µM.

The record behind these values is patent publication US9206173B2, “Heterocyclic compounds for the treatment of stress-related conditions” (OTSUKA PHARMACEUTICAL CO., LTD., priority 2009, dated 2015).
